In US4684664A, “Derivatives of β-(4-isocyano-1,2,3,4-diepoxycyclopentyl) acrylic acid” (Kureha Kagaku Kogyo Kabushiki Kaisha, priority 1984, dated 1987):
Values after ≈ are worked out from the molar mass of the structure shown.

What was measured:
Assay type in all cases: cell-based
[1] = test system: Staphylococcus aureus FDA 209PJc-1; experiment: Antibacterial activity, agar-dilution MIC, organism No. 1; conditions: Staphylococcus aureus, FDA209PJC1; Organism No. 1, bouillon-agar; read-out: Minimum Inhibitory Concentration
How it was run: (§1)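 Minimum inhibitory concentration determined on solid bouillon agar by the agar-dilution technique, with values stated as μg/ml.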

[2] = test system: Staphylococcus aureus Terajima; experiment: Antibacterial activity, agar-dilution MIC, organism No. 2; conditions: Staphylococcus aureus; Organism No. 2, bouillon-agar; read-out: Minimum Inhibitory Concentration
How it was run: as §1

[3] = test system: Staphylococcus aureus MS 353; experiment: Antibacterial activity, agar-dilution MIC, organism No. 3; conditions: Staphylococcus aureus, MS353; Organism No. 3, bouillon-agar; read-out: Minimum Inhibitory Concentration
How it was run: as §1

[4] = test system: Streptococcus pyogenes Cook; experiment: Antibacterial activity, agar-dilution MIC, organism No. 4; conditions: Streptococcus pyogenes; Organism No. 4, bouillon-agar; read-out: Minimum Inhibitory Concentration
How it was run: as §1

[5] = test system: Escherichia coli NIHJ-JC-2; experiment: Antibacterial activity, agar-dilution MIC, organism No. 5; conditions: Escherichia coli, NIHJJC2; Organism No. 5, bouillon-agar; read-out: Minimum Inhibitory Concentration
How it was run: as §1

[6] = test system: Escherichia coli K12 C600 IAM 1264; experiment: Antibacterial activity, agar-dilution MIC, organism No. 6; conditions: Escherichia coli, IAM1264; Organism No. 6, bouillon-agar; read-out: Minimum Inhibitory Concentration
How it was run: as §1

[7] = test system: Klebsiella pneumoniae PCI-602; experiment: Antibacterial activity, agar-dilution MIC, organism No. 7; conditions: Klebsiella pneumoniae, PCI602; Organism No. 7, bouillon-agar; read-out: Minimum Inhibitory Concentration
How it was run: as §1

[8] = test system: Salmonella typhimurium IID 971; experiment: Antibacterial activity, agar-dilution MIC, organism No. 8; conditions: Salmonella enterica; Organism No. 8, bouillon-agar; read-out: Minimum Inhibitory Concentration
How it was run: as §1

Salmonella typhi 901 = experiment: Antibacterial activity, agar-dilution MIC, organism No. 9; conditions: Salmonella enterica, TYPHI, read-out: Minimum Inhibitory Concentration
How it was run: as §1

[9] = test system: Salmonella paratyphi-A 1015; experiment: Antibacterial activity, agar-dilution MIC, organism No. 10; conditions: Salmonella enterica, PARATYPHI, read-out: Minimum Inhibitory Concentration
How it was run: as §1

[10] = test system: Salmonella shottmuelleri 8006; experiment: Antibacterial activity, agar-dilution MIC, organism No. 11; conditions: Salmonella, 8006; Organism No. 11, bouillon-agar; read-out: Minimum Inhibitory Concentration
How it was run: as §1

[11] = test system: Salmonella enteritidis G 14; experiment: Antibacterial activity, agar-dilution MIC, organism No. 12; conditions: Salmonella enterica, ENTERITIDIS; Organism No. 12, bouillon-agar; read-out: Minimum Inhibitory Concentration
How it was run: as §1

[12] = test system: Serratia marcescens IAM 1184; experiment: Antibacterial activity, agar-dilution MIC, organism No. 13; conditions: Serratia marcescens, IAM1184; Organism No. 13, bouillon-agar; read-out: Minimum Inhibitory Concentration
How it was run: as §1

[13] = test system: Bacillus subtilis ATCC 6633; experiment: Antibacterial activity, agar-dilution MIC, organism No. 14; conditions: Bacillus subtilis, ATCC6633; Organism No. 14, bouillon-agar; read-out: Minimum Inhibitory Concentration
How it was run: as §1

[14] = test system: Pseudomonas aeruginosa IFO 3445; experiment: Antibacterial activity, agar-dilution MIC, organism No. 15; conditions: Pseudomonas aeruginosa, IFO3445; Organism No. 15, bouillon-agar; read-out: Minimum Inhibitory Concentration
How it was run: as §1

[15] = test system: Pseudomonas aeruginosa NCTC 10490; experiment: Antibacterial activity, agar-dilution MIC, organism No. 16; conditions: Pseudomonas aeruginosa, NCTC10490; Organism No. 16, bouillon-agar; read-out: Minimum Inhibitory Concentration
How it was run: as §1

[16] = test system: Pseudomonas aeruginosa PAO 1; experiment: Antibacterial activity, agar-dilution MIC, organism No. 17; conditions: Pseudomonas aeruginosa, PAO1; Organism No. 17, bouillon-agar; read-out: Minimum Inhibitory Concentration
How it was run: as §1

[17] = test system: Proteus morganii IFO 3848; experiment: Antibacterial activity, agar-dilution MIC, organism No. 18; conditions: Morganella morganii, IFO3848; Organism No. 18, bouillon-agar; read-out: Minimum Inhibitory Concentration
How it was run: as §1

[18] = test system: Proteus mirabilis IFO 3849; experiment: Antibacterial activity, agar-dilution MIC, organism No. 19; conditions: Proteus mirabilis, IFO3849; Organism No. 19, bouillon-agar; read-out: Minimum Inhibitory Concentration
How it was run: as §1

Proteus vulgaris OX-19 = experiment: Antibacterial activity, agar-dilution MIC, organism No. 20; conditions: Proteus vulgaris, OX19; Organism No. 20, bouillon-agar; read-out: Minimum Inhibitory Concentration
How it was run: as §1

Proteus vulgaris HX-19 = experiment: Antibacterial activity, agar-dilution MIC, organism No. 21; conditions: Proteus vulgaris, HX19; Organism No. 21, bouillon-agar; read-out: Minimum Inhibitory Concentration
How it was run: as §1

[19] = test system: Proteus rettgeri IFO 3850; experiment: Antibacterial activity, agar-dilution MIC, organism No. 22; conditions: Providencia rettgeri, IFO3850; Organism No. 22, bouillon-agar; read-out: Minimum Inhibitory Concentration
How it was run: as §1

[20] = test system: Enterobacter aerogenes ATCC 13048; experiment: Antibacterial activity, agar-dilution MIC, organism No. 23; conditions: Klebsiella aerogenes, ATCC13048; Organism No. 23, bouillon-agar; read-out: Minimum Inhibitory Concentration
How it was run: as §1

Enterobacter cloacae 963 = experiment: Antibacterial activity, agar-dilution MIC, organism No. 24; conditions: Enterobacter cloacae, 963; Organism No. 24, bouillon-agar; read-out: Minimum Inhibitory Concentration
How it was run: as §1

[21] = test system: Micrococcus luteus ATCC 9341; experiment: Antibacterial activity, agar-dilution MIC, organism No. 25; conditions: Micrococcus luteus, ATCC9341; Organism No. 25, bouillon-agar; read-out: Minimum Inhibitory Concentration
How it was run: as §1

[22] = test system: Streptococcus pyogenes IFO 3340; experiment: Antibacterial activity, agar-dilution MIC, organism No. 26; conditions: Streptococcus pyogenes, IFO3340; Organism No. 26, bouillon-agar; read-out: Minimum Inhibitory Concentration
How it was run: as §1

[23] = test system: Streptococcus faecium IFO 3826; experiment: Antibacterial activity, agar-dilution MIC, organism No. 27; conditions: Enterococcus faecium, IFO3826; Organism No. 27, bouillon-agar; read-out: Minimum Inhibitory Concentration
How it was run: as §1

[24] = test system: Mycoplasma pneumoniae IID817; experiment: Antimycoplasmal activity, MIC by phenol red colour change, organism No. 28; conditions: Mycoplasma, IID817; Organism No. 28, PPLO broth + 1% glucose, 37° C.; read-out: Minimum Inhibitory Concentration (MIC)
Experimental: Mycoplasma pneumoniae IID817 was used as the test microorganism in a culture medium prepared by adding 1% of glucose to "PPLO broth (manufactured by Difco Co.) liquid culture medium" at 37° C. with phenol red as an indicator, thereby culturing the test microorganism.

[25] = test system: Candida albicans IAM 4905; experiment: Antifungal activity, agar-dilution MIC, organism No. 29; conditions: Candida albicans, IAM4905; Organism No. 29, bouillon-agar; read-out: Minimum Inhibitory Concentration
How it was run: as §1

[26] = test system: Aspergillus niger IFO 6342; experiment: Antifungal activity, agar-dilution MIC, organism No. 30; conditions: Aspergillus niger, IFO6342; Organism No. 30, bouillon-agar; read-out: Minimum Inhibitory Concentration
How it was run: as §1

[C-]#[N+]C12CC3(/C=C/C(=O)Nc4ccc(N)cc4)OC3C1O2 (stereo not drawn) [compound 59]
MIC [1]: 6.25 µg/mL (≈ 22.1 µM)
MIC [2]: 25 µg/mL (≈ 88.2 µM)
MIC [3]: 6.25 µg/mL (≈ 22.1 µM)
MIC [4]: 50 µg/mL (≈ 176 µM)
MIC [5]: 25 µg/mL (≈ 88.2 µM)
MIC [6]: 25 µg/mL (≈ 88.2 µM)
MIC [7]: 3.13 µg/mL (≈ 11 µM)
MIC [8]: 12.5 µg/mL (≈ 44.1 µM)
MIC (Salmonella typhi 901): 6.25 µg/mL (≈ 22.1 µM)
MIC [9]: 6.25 µg/mL (≈ 22.1 µM)
MIC [10]: 6.25 µg/mL (≈ 22.1 µM)
MIC [11]: 6.25 µg/mL (≈ 22.1 µM)
MIC [12]: 200 µg/mL (≈ 706 µM)
MIC [13]: 12.5 µg/mL (≈ 44.1 µM)
MIC [14]: > 200 µg/mL
MIC [15]: > 200 µg/mL
MIC [16]: > 200 µg/mL
MIC [17]: 3.13 µg/mL (≈ 11 µM)
MIC [18]: > 200 µg/mL
MIC (Proteus vulgaris OX-19): 1.56 µg/mL (≈ 5.51 µM)
MIC (Proteus vulgaris HX-19): 1.56 µg/mL (≈ 5.51 µM)
MIC [19]: 200 µg/mL (≈ 706 µM)
MIC [20]: > 200 µg/mL
MIC (Enterobacter cloacae 963): > 200 µg/mL
MIC [21]: 0.78 µg/mL (≈ 2.75 µM)
MIC [22]: 6.25 µg/mL (≈ 22.1 µM)
MIC [23]: 100 µg/mL (≈ 353 µM)
MIC [24]: < 0.2 µg/mL
MIC [25]: 12.5 µg/mL (≈ 44.1 µM)
MIC [26]: 12.5 µg/mL (≈ 44.1 µM)

[C-]#[N+]C12CC3(/C=C/C(=O)NC4CCCCC4)OC3C1O2 (stereo not drawn) [compound 20]
MIC [1]: 1.56 µg/mL (≈ 5.69 µM)
MIC [2]: 12.5 µg/mL (≈ 45.6 µM)
MIC [3]: 1.56 µg/mL (≈ 5.69 µM)
MIC [4]: 6.25 µg/mL (≈ 22.8 µM)
MIC [5]: > 200 µg/mL
MIC [6]: > 200 µg/mL
MIC [7]: 0.39 µg/mL (≈ 1.42 µM)
MIC [8]: 100 µg/mL (≈ 365 µM)
MIC (Salmonella typhi 901): 6.25 µg/mL (≈ 22.8 µM)
MIC [9]: 6.25 µg/mL (≈ 22.8 µM)
MIC [10]: 3.13 µg/mL (≈ 11.4 µM)
MIC [11]: 12.5 µg/mL (≈ 45.6 µM)
MIC [12]: > 200 µg/mL
MIC [13]: 50 µg/mL (≈ 182 µM)
MIC [14]: > 200 µg/mL
MIC [15]: > 200 µg/mL
MIC [16]: > 200 µg/mL
MIC [17]: 0.78 µg/mL (≈ 2.84 µM)
MIC [18]: > 200 µg/mL
MIC (Proteus vulgaris OX-19): 0.78 µg/mL (≈ 2.84 µM)
MIC (Proteus vulgaris HX-19): 0.1 µg/mL (≈ 0.365 µM)
MIC [19]: > 200 µg/mL
MIC [20]: > 200 µg/mL
MIC (Enterobacter cloacae 963): > 200 µg/mL
MIC [21]: < 0.05 µg/mL
MIC [22]: 6.25 µg/mL (≈ 22.8 µM)
MIC [23]: 12.5 µg/mL (≈ 45.6 µM)
MIC [24]: < 0.2 µg/mL
MIC [25]: 1.56 µg/mL (≈ 5.69 µM)
MIC [26]: 6.25 µg/mL (≈ 22.8 µM)
